According to patent publication US12448632B2, “Guanidine degradation enzyme and methods of use” (Alliance for Sustainable Energy, LLC, priority 2020, dated 2025):

How the values were obtained:
GD7942 (+sll1077) = assay: Guanidine tolerance test, cell growth; format: cell-based, Synechococcus elongatus PCC 7942
Method: Guanidine tolerance and degradation test. […] For guanidine degradation test, cyanobacterial strains were grown in 10 mL mBG11 free of nitrate while supplemented with 50 mM NaHCO3 and 5 mM or 1 mM guanidine chloride, under constant light of 50 μE m^−2 s^−1 on a rotary shaker at 150 rpm and 30° C. Every day, 1 mL of culture was sampled for reading OD730 and then transferred into an Eppendorf tube and centrifuged at 17000×g at room temperature for 2 min. The supernatants were stored at −20° C. for later analysis of guanidine.

Synechococcus 7942 [1] = format: cell-based, Synechococcus elongatus PCC 7942
Method: (§1) Guanidine tolerance and degradation test. For guanidine tolerance test, cyanobacterial strains were grown in 20 mL mBG11 medium supplemented with 0-1 mM guanidine and 50 mM NaHCO3. For guanidine degradation test, cyanobacterial strains were grown in 10 mL mBG11 free of nitrate while supplemented with 50 mM NaHCO3 and 5 mM or 1 mM guanidine chloride, under constant light of 50 μE m^−2 s^−1 on a rotary shaker at 150 rpm and 30° C. Every day, 1 mL of culture was sampled for reading OD730 and then transferred into an Eppendorf tube and centrifuged at 17000×g at room temperature for 2 min. The supernatants were stored at −20° C. for later analysis of guanidine.

Δsll1077 strain (PB805W) = assay: Growth in nitrate-deprived medium with guanidine; format: cell-based, Synechocystis sp. PCC 6803; conditions: guanidine-supplemented (5 mM) versus nitrogen-deprived conditions
Method: as §1

Synechococcus 7942 [2] = assay: Cell growth with urea in culture medium; format: cell-based, Synechococcus elongatus PCC 7942; conditions: 5 mM urea; nitrate-deprived or nitrate-replete conditions

Structure (SMILES) | cell growth (GD7942 (+sll1077); 1 mM guanidine in culture medium) | cell growth (GD7942 (+sll1077); 2 mM guanidine in culture medium) | guanidine concentration at which cell growth was already inhibited (Synechococcus 7942 [1]) | cell growth (Δsll1077 strain (PB805W)) | impact on cell growth (Synechococcus 7942 [2])
N=C(N)N [guanidine] | not apparently repressed | only slightly inhibited | 0.3 mM | severely inhibited | –
NC(N)=O [urea] | – | – | – | – | did not show any apparent impact on the cell growth
